Experiments:
[1] = biological target: T1, hALDH1a2 (Homo sapiens, UniProt O94788); assay: biochemical; conditions: read-out: hAldhla2 IC50
T1 construct: pET-Aldh1a2 transformed BL21-DE3 cultures; cell extracts
T1 sequence (O94788 1-518): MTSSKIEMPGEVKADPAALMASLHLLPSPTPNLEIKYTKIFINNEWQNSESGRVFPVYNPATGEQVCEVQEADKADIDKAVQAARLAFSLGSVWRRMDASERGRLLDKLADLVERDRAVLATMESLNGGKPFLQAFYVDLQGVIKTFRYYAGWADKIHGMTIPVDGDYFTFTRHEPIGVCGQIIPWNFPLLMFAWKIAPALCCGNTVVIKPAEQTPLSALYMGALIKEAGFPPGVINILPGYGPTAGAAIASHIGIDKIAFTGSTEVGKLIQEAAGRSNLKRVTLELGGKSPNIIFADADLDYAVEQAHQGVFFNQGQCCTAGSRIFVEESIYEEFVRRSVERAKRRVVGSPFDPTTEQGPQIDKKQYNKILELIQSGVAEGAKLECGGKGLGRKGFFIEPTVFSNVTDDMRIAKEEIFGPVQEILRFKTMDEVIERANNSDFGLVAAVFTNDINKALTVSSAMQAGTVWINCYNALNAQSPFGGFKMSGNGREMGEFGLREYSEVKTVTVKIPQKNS
Protocol: (§1) Biological Example 5C. Aldh1a2 Enzyme Inhibition Assay
(§2) Cell extracts were spun at 16000 x g for 5 minutes.
(§3) Recombinant enzyme and inhibitor added immediately before assay. Reaction rate measured by resorufin fluorescence. […]
(§4) Table 3B. IC50 values (nM) for inhibition of hALDH1a2 and mALDH1a2 of selected compounds

[2] = biological target: T2, mALDH1a2 (Mus musculus, UniProt Q62148); assay: biochemical; conditions: read-out: mAldhla2 IC50
T2 construct: pET-Aldh1a2 transformed BL21-DE3 cultures; cell extracts
T2 sequence (Q62148 1-518): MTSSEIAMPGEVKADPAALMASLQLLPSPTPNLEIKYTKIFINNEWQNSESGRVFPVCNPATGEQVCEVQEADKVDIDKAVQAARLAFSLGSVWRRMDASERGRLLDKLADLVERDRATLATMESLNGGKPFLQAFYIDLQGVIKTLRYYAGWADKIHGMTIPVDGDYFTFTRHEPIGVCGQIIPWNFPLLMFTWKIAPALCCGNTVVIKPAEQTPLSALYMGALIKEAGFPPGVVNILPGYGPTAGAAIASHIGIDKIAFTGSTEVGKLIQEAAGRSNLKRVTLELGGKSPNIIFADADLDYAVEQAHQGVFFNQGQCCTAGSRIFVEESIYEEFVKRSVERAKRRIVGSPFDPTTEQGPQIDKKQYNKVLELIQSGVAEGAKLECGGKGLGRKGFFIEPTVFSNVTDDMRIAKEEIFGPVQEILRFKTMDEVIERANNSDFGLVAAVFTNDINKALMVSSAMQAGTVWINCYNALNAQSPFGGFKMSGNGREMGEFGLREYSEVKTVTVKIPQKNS
Protocol: as §1, §2, §3, §4

IC50 [1] [µM] | IC50 [2] [µM] | SMILES
10 | > 10 | COC(=O)c1ccc2ncc(Nc3ccc4c(c3)CC(C)(C)C(=O)N4)nc2c1 [compound 120]
> 10 | 5 | CC1(C)Cc2cc(Nc3ccc4cnccc4c3)ccc2NC1=O [compound 103]
10 | 6.38 | N#Cc1ccc2ccc(Nc3ccc4c(c3)CCC(=O)N4)nc2c1 [compound 90]
0.376 | 0.522 | O=C1CCc2cc(NC(=O)c3ccncc3CC3CC3)c(F)cc2N1 [compound 81]
0.042 | 0.045 | CC1(C)Cc2cc(Nc3cnc4ccccc4n3)c(F)cc2NC1=O [compound 109]
0.466 | 0.294 | CC1(C)Cc2cc(Nc3ccc(Cl)c(Cl)n3)ccc2NC1=O [compound 97]
> 10 | > 10 | O=S1(=O)CCc2cc(Nc3ccc4ccccc4n3)ccc2N1 [compound 102]
> 10 | 10 | O=C1CCc2cc(Oc3ncc4ccccc4n3)ccc2N1 [compound 119]
3.08 | 1.29 | CC1(C)Cc2cc(Nc3nc4ccccc4[nH]3)ccc2NC1=O [compound 98]
0.08 | 0.063 | CC1(C)Cc2cc(Nc3ncc4ccccc4n3)ccc2NC1=O [compound 93]
> 10 | > 10 | CC1(C)Cc2cc(Nc3ccc(Cl)cn3)ccc2NC1=O [compound 123]
> 10 | > 10 | N#Cc1cccc2ncc(Nc3ccc4c(c3)CCC(=O)N4)cc12 [compound 100]
> 10 | > 10 | CCc1cnccc1C(=O)Nc1cc2c(cc1C#N)NC(=O)CC2 [compound 84]
10 | 0.489 | Cc1ccc2nc(Nc3ccc4c(c3)CCC(=O)N4)ccc2c1 [compound 89]
0.998 | 0.594 | Cc1ccc2ccc(Nc3ccc4c(c3)CCC(=O)N4)nc2c1 [compound 91]
10 | 1.77 | CC1(C)Cc2cc(Nc3ccc4cnccc4n3)ccc2NC1=O [compound 95]
0.12 | 0.1 | CC1(C)Cc2cc(Nc3ncc4ccccc4n3)c(F)cc2NC1=O [compound 108]
0.419 | 0.149 | Cc1cccc2nc(Nc3ccc4c(c3)CCC(=O)N4)ccc12 [compound 87]
> 10 | > 10 | CC1(C)Cc2cc(Nc3cccc(Cl)n3)ccc2NC1=O [compound 122]
0.305 | 0.337 | CC1(C)Cc2cc(Nc3nc(=O)c4ccccc4[nH]3)ccc2NC1=O [compound 116]
> 10 | > 10 | CC1(C)Cc2cc(Nc3c[nH]c4ccccc4c3=O)ccc2NC1=O [compound 115]
> 10 | > 10 | CCc1cnccc1C(=O)Nc1ccc2c(c1)C(F)(F)C(=O)N2 [compound 136]
0.196 | 0.145 | Cc1cccc2ccc(Nc3ccc4c(c3)CC(C)(C)C(=O)N4)nc12 [compound 111]
> 10 | > 10 | CC1(C)Cc2cc(Nc3ccc4c(c3)NC(=O)CC4)ccc2NC1=O [compound 114]
> 10 | > 100 | CCc1cnccc1C(=O)Nc1ccc2c(c1)C(C)(C)C(=O)N2 [compound 137]
> 10 | > 10 | CC1(C)Cc2cc(Nc3ccc4ccncc4c3)ccc2NC1=O [compound 104]
1.89 | 0.935 | Cc1cccc2ncc(Nc3ccc4c(c3)CCC(=O)N4)cc12 [compound 101]
> 10 | > 10 | Cc1ccc(Nc2ccc3c(c2)CC(C)(C)C(=O)N3)nc1C [compound 96]
4.49 | 4.05 | CC1(C)Cc2cc(Nc3cc(Cl)c(Cl)cn3)ccc2NC1=O [compound 125]

Second part, the compound before the results:

SMILES | IC50 [1] [µM] | IC50 [2] [µM]
CCc1cnc(C)cc1C(=O)Nc1ccc2c(c1)CCC(=O)N2 [compound 56] | 10 | 1.26
Cc1cc(C(=O)Nc2ccc3c(c2)CC2(CC2)C(=O)N3)c(Cl)cn1 [compound 68] | > 10 | 3.44
CCc1cnccc1C(=O)Nc1ccc2c(c1)CC(C)(C)C(=O)N2 [compound 18] | 2.13 | 1.74
CCc1c(C(=O)Nc2ccc3c(c2)CCC(=O)N3)ccnc1C [compound 55] | > 10 | > 10
CCc1cnccc1C(=O)Nc1ccc2c(c1)CC(C)(CC)C(=O)N2 (centres unmarked) [compound 62] | > 10 | > 10
CCc1cnccc1C(=O)Nc1ccc2c(c1)CC(C)C(=O)N2 (centres unmarked) [compound 63] | 0.538 | 0.297
CCc1cnccc1C(=O)Nc1ccc2c(c1)CC1(CC1)C(=O)N2 [compound 61] | 2.04 | 1.81
CCc1cnccc1C(=O)Nc1ccc2c(c1)C(C)CC(=O)N2 (centres unmarked) [compound 64] | 2.79 | 5
Cc1ccc(C)c(CNc2ccc3c(c2)CCC(=O)N3)c1 [compound 10] | 9 | 3.5
CCc1cnccc1/C=C/c1ccc2c(c1)CCC(=O)N2 [compound 33] | 0.258 | 0.143
CCc1cnc(Cl)cc1C(=O)Nc1cc2c(cc1F)NC(=O)CC2 [compound 80] | 0.384 | 0.324
CCc1cc(=O)n(C)cc1C(=O)Nc1ccc2c(c1)CCC(=O)N2 [compound 76] | 6.56 | 4.31
CCc1cnc(C)cc1C(=O)Nc1cc2c(cc1F)NC(=O)CC2 [compound 79] | 1.46 | 0.849
Cc1cnccc1/C=C/c1ccc2c(c1)CCC(=O)N2 [compound 30] | 9 | 11.1
O=C1CCc2cc(NC(=O)c3ccnc4ccccc34)ccc2N1 [compound 52] | 0.32 | 0.117
CC1(C)CC(=O)Nc2ccc(Nc3nccc4ccccc34)cc21 [compound 34] | 39.2 | 30.9
COCc1cnccc1C(=O)Nc1ccc2c(c1)CCC(=O)N2 [compound 57] | > 10 | > 10
CCCc1cnccc1C(=O)Nc1ccc2c(c1)CCC(=O)N2 [compound 60] | 1.53 | 0.935

SMILES | IC50 [1] [µM] | IC50 [2] [µM]
CCc1cnccc1C(=O)Nc1ccc2c(c1)C(C)(C)CC(=O)N2 [compound 19] | 0.65 | 1.05
Cc1cc(C(=O)Nc2cc3c(cc2F)NC(=O)CC3)ccn1 [compound 16] | 10 | 10
CCc1c(C(=O)Nc2ccc3c(c2)CCC(=O)N3)cc[nH]c1=O [compound 50] | > 10 | > 10
CCc1cc(C#N)ccc1C(=O)Nc1cc2c(cc1F)NC(=O)C(C)(C)C2 [compound 42] | 6.36 | 2.6
Cc1cc(C(=O)Nc2ccc3c(c2)CCC(=O)N3)ccn1 [compound 24] | 100 | 100
CCc1cnccc1C(=O)Nc1ccc2c(c1)CN(C)C(=O)N2 [compound 20] | > 10 | > 100
Cc1cc(C(=O)Nc2cc3c(cc2F)NC(=O)C(C)(C)C3)c(CC(C)C)cn1 [compound 37] | > 10 | > 10
CCc1cnccc1C(=O)Nc1cc2ccc(=O)[nH]c2cc1F [compound 39] | 3.5 | 8
CC(C)Cc1cnccc1C(=O)Nc1cc2c(cc1F)NC(=O)CC2 [compound 7] | 3.5 | 9
CN(C)Cc1cnccc1C(=O)Nc1ccc2c(c1)CCC(=O)N2 [compound 58] | > 10 | > 10
O=C1CCc2cc(NC(=O)c3ccncc3)c(F)cc2N1 [compound 2] | > 10 | 10
CCc1cnccc1/C=C/c1cc2c(cc1F)NC(=O)CC2 [compound 45] | 0.293 | 3.33
CCc1cnccc1C(=O)Nc1cc2c(cc1F)NC(=O)CC2(C)C [compound 40] | 1.04 | 3.33
CCc1cnc(F)cc1C(=O)Nc1ccc2c(c1)CCC(=O)N2 [compound 78] | 0.46 | 0.366
C=CCc1cnccc1C(=O)Nc1ccc2c(c1)CCC(=O)N2 [compound 71] | 0.963 | 0.747
CCCc1cnccc1C(=O)Nc1cc2c(cc1F)NC(=O)CC2 [compound 5] | 9 | 10
O=C1CCc2cc(Nc3ccc4ccccc4n3)ccc2N1 [compound 35] | 0.148 | 0.1

Reference: EP4803142A2 (Kayothera Inc., priority 2021, dated 2022)
